# US20160175224A1, “ANTIPERSPIRANT COMPOSITION” (priority 2014, published 2016)
# System: subjects' underarms
# Assay: In vivo study of eight-hour antiperspirant efficacy (FDA Guidelines for Effectiveness Testing of OTC Antiperspirant Drug Products, hot room, weighed pads)
# Set-up: species or system human
# Conditions: for Antiperspirant activity against FDA Guidelines success criteria (minimum of 20% sweat reduction in at least 50% volunteers): eight-hour efficacy, day 30 of application period; for % of subjects with reduction in relation to control / Average % of sweat reduction (mg): roll-on compositions of Examples 7-9 applied daily to one underarm for 30 days, eight hours after, hot room 37.8° C.; for % of subjects with reduction in relation to control: other underarm untreated control, 30-40% RH, 80 minutes, fifteen subjects per composition; for Average % of sweat reduction (mg): relative to untreated control underarm, pad weights
# Experimental: An in vivo study of the eight-hour antiperspirant efficacy of the compositions of Examples 7, 8 and 9 was performed as follows using the US FOOD AND DRUG ADMINISTRATION Guidelines for Effectiveness Testing of OTC Antiperspirant Drug Products, 2003. Example 7 was comparative, as indicated above.
# Fifteen subjects were used to test each composition. Subjects were first subjected to a 21-day conditioning period, which began with a 14 day wash out period. During 14 day wash out period, the subjects used a standard bar soap and bacteriostatic deodorant supplied by the institute running the study. […] Following this, from day 15 to day 21 the subjects were instructed to use only standard soap and discontinue the bacteriostatic deodorant.
# During the conditioning period, subjects were instructed and supervised by a trained technician to wash their underarms according to the following procedure: a) wash one of the underarms for 10 seconds with an aqueous solution of standard soap 2.0%; b) rinse thoroughly with running water until the soap is completely removed; c) dry the underarm with a paper towel; and d) repeat the procedure with the other underarm.
# After the wash out period was completed, each subject was checked for unauthorized use of antiperspirant products during the conditioning period using a cotton swab in the underarms.
# Next, a 30 day application period began. 150 cm^2, randomly distributed areas were marked on each subjects' underarm. Test samples were then applied to one underarm of each subject, while the other underarm was untreated as a control every day during the 30 day application period. Subjects waxed or shaved their underarms every Friday evening.
# On day 30 of the 30 day application period, each subject was provided with a 100% cotton t-shirt previously washed with water and neutral soap without fragrance and again washed only with water. The subjects were instructed to wear the T-shirts for eight hours.
# After eight hours, the subjects were placed in a room at 37.8° C.±1° C. and relative humidity between 30% and 40% for 80 minutes. After 40 minutes in the hot room, pads previously weighed and stored in closed polyethylene bags were removed from the bags and placed immediately onto the subjects' underarms, and then replaced every 20 minutes. Subjects ingested 200 mL of water when entering the hot room and also 40 minutes later in order to maintain the internal level of hydration, allowing the sweat to flow freely and evidencing only the effects of the formulation of the product tested. The initial 40 minute period was considered as an acclimatization period.
# Used pads were collected every 20 minutes and weighed. The weights of the pads pre- and post-use were compared according to the FDA Guidelines using statistical analysis with the Wilcoxon Signed Rank test (FDA protocol) and the Student-t test paired with the unilateral hypothesis of improvement for sweating assessment. The confidence level considered in the comparative analysis was 95%. Software: XLSTAT 2013 and MINITAB 14.
Substance,Antiperspirant activity against FDA Guidelines success criteria (minimum of 20% sweat reduction in at least 50% volunteers),% of subjects with reduction in relation to control [%],Average % of sweat reduction (mg) [%],Average % of sweat reduction (mg) (listed as acetyl hexapeptide-8) [%]
acetyl hexapeptide-8 [reference compound],did not meet success criteria,66.7,8.0,8.0
acetyl octapeptide-3,confirms antiperspirant activity,81.8,20.7,
dipeptide diaminobutyroyl benzylamide diacetate,confirms antiperspirant activity,92.3,25.6,
